Reference: PubChem BioAssay AID651630 (Sanford-Burnham Center for Chemical Genomics, 2012)
Calls of active or inactive are those of the source.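 The calls were made as follows: active = lipid-stain IC50 at or below a set limit, with nuclear-stain toxicity IC50 at least five times higher; inactive = the rest.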

How the values were obtained:
[1] = test system: TAG; test: triacylglycerol accumulation inhibitor potency, dose response, cell-based, panel, Nile Red and DAPI fluorescence, H9c2 (AID 651630); details: H9c2 cells, Nile Red TAG fluorescence, oleic acid;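 also: cells exposed to compound overnight before fixation and staining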
[2] = test system: DAPI; test: as above; details: H9c2 cells, DAPI nuclear fluorescence (cytotoxicity counter-readout), oleic acid

Structure (SMILES)	IC50 ([1]; mean of runs)	IC50 ([1]; run 1)	IC50 ([1]; run 2)	IC50 cytotoxicity (DAPI nuclear signal decrease) ([2]; mean of runs)	IC50 cytotoxicity (DAPI nuclear signal decrease) ([2]; run 1)	IC50 cytotoxicity (DAPI nuclear signal decrease) ([2]; run 2)
CCN(CC(=O)Nc1ccc(C(=O)Nc2ccc(OC)cc2)cc1)Cc1nc2ccccc2c(=O)[nH]1	> 25 µM (inactive)	> 25 µM	> 25 µM	> 25 µM (inactive)	> 25 µM	> 25 µM
CC(C)CCNCC(O)CON=C1c2ccccc2-c2ccccc21 (stereo not given)	> 25 µM (inactive)	> 25 µM	> 25 µM	> 25 µM (inactive)	> 25 µM	> 25 µM
NC(N)=Nc1ccc(C=C2C=Cc3ccccc32)cc1	11.8 µM	12.6 µM	11.1 µM	22.8 µM (inactive)	21.2 µM	24.5 µM
O=c1cc(N2CCN(c3cccc(Cl)c3)CC2)[nH]c(=O)n1C1CCCCC1	3.47 µM	5.5 µM	1.44 µM	–	18.2 µM	> 25 µM
CC(C)c1ccc(NC(=O)Nc2nc(C(N)C3CCCCC3)cs2)cc1 (stereo not given)	8.38 µM	8.24 µM	8.53 µM	17.3 µM (inactive)	16 µM	18.6 µM
Cc1cc(N2CCN(Cc3cn(C)nc3-c3ccccc3F)CC2)cc(C)n1	13.1 µM	11.1 µM	15.1 µM	> 25 µM (inactive)	> 25 µM	> 25 µM
O=c1cc(-c2ccccc2)[nH]c2ccccc12	3.61 µM	2.45 µM	4.77 µM	–	20.5 µM	> 25 µM
CCOc1ccc(Cc2nnc(SCC(=O)Nc3ccccc3)n(N)c2=O)cc1	5.04 µM	5.36 µM	4.71 µM	> 25 µM (inactive)	> 25 µM	> 25 µM
CC1(C(=O)NCc2ccco2)Cc2c(-c3ccc4c(c3)OCO4)ccnc2O1 (stereo not given)	–	17.1 µM	> 25 µM	> 25 µM (inactive)	> 25 µM	> 25 µM
C[C@H]1CN([C@@H](C)CO)C(=O)c2cc(NC(=O)Nc3cccc4ccccc34)ccc2O[C@@H]1CN(C)Cc1ccc(-c2ccccc2)cc1	–	20.2 µM	> 25 µM	> 25 µM (inactive)	> 25 µM	> 25 µM
CN(C)C(=O)c1cccc(-c2cnc3c(NC=O)cc(-c4ccc(C(=O)N5CCOCC5)cc4)cn23)c1	8.71 µM	3.47 µM	13.9 µM	> 25 µM (inactive)	> 25 µM	> 25 µM
COc1ccc(NC(=S)N(CCCN2CCCC2)Cc2cccn2Cc2ccc(Cl)cc2)cc1Cl	–	16.8 µM	> 25 µM	–	24.1 µM	> 25 µM
COC(=O)c1ccc(Oc2cc(C)nc(SC)n2)cc1	–	> 25 µM	14.1 µM	> 25 µM (inactive)	> 25 µM	> 25 µM
O=c1cc(-c2ccccc2)[nH]c2ccc(F)cc12	> 25 µM (inactive)	> 25 µM	> 25 µM	> 25 µM (inactive)	> 25 µM	> 25 µM
CCN1CCN(Cc2ccc(NC(=O)c3ccc(C)c(NC(=O)C(=O)c4c[nH]c5ccccc45)c3)cc2C(F)(F)F)CC1	4.98 µM	6.17 µM	3.8 µM	23.8 µM (inactive)	24.4 µM	23.1 µM
CN(C)CCCNC(=O)CC1C[C@H](C(=O)N2CCCCC2)[C@@]2(CCc3ccccc3)c3[nH]c4ccccc4c3CCN2C1=O (stereo not given in full)	20 µM (inactive)	23.2 µM	16.8 µM	> 25 µM (inactive)	> 25 µM	> 25 µM
CC(=O)c1cccc(-c2ccnc3c2CC(C(=O)NCc2ccco2)O3)c1 (stereo not given)	> 25 µM (inactive)	> 25 µM	> 25 µM	> 25 µM (inactive)	> 25 µM	> 25 µM
